Test results from patent publication US20250186403A1 (ARIZONA BOARD OF REGENTS ON BEHALF OF THE UNIVERSITY OF …, priority 2022, published 2025).
One block for each compound: values may come before it.

Experiments:
[1] = tested on: Cne cells; assay: Checkerboard assay with known antifungals; assay type: cell-based, Cryptococcus neoformans; conditions: for MIC: Cryptococcus neoformans, read-out: MIC Alone
Procedure: After adding Cne cells, the plates were incubated for 48 h. Well contents were mixed by pipette, and absorbance was read at 630 nm. […] Based on the FIC, the combinatorial effects are decided as in Table 2.

[2] = target: Split-NanoLuc-Prp8 intein protein (Cryptococcus gattii, UniProt E6R027); assay: Split nanoluciferase-Prp8 intein splicing assay; assay type: biochemical; conditions: 1 nM protein, 100 µM TCEP, 24 h; read-out: IC50, Prp8-NanoBit splicing
Procedure: TCEP is added to a final concentration of 100 µM and incubated for 24 h. The substrate Nano-Glo luciferase (Promega) was added, and the resulting luminescence was read. IC50 was calculated using GraphPad prism.
For the split nanoluciferase-Prp8 intein, in order to block the free cysteine residues, 5,5′-dithiobis-(2-nitrobenzoic) acid (DTNB) was added to 1:10 molar ratio and incubated at 4° C. for 5 min and dialyzed in 20 mM Tris, 150 mM NaCl, pH 9.0 and stored at −80° C. till further use.
The protein was diluted into 2 nM in assay buffer 20 mM tris, 150 mM NaCl with 0.1% BSA, 2 mM EDTA), and 80 μl was added to each well of 96 well plates (white, opaque). […] The plates were incubated at RT for 30 min, and 20 μl of TCEP was added to a final concentration of 100 µM. The plates were sealed to prevent evaporation. After incubating for 24 h at RT, 25 μl of the diluted (1:10,000 in assay buffer) diluted nanoluc substrate furimazine (Promega) was added. The emitted luminescence was quantified using the EnVision luminescence reader (Synergyll, Biotech). The IC50 was calculated using the GraphPad prism version 9.

[3] = single drug, ≥90% reduction of absorbance at 630 nm, 48 h

Split-NanoLuc-Prp8 intein protein, sequence (E6R027 entry or part of it): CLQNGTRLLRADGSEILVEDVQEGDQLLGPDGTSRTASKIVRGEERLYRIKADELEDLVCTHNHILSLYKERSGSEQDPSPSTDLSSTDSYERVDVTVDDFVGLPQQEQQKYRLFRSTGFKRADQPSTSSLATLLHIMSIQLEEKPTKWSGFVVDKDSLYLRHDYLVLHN

MIC [1, 3]: 4.13 µg/mL | MIC Comb ([1]; combination CMN + 5-Fluorocytosine, well D2): 2.06 µg/mL
SMILES: Nc1nc(=O)[nH]cc1F [5-Fluorocytosine]

MIC Comb ([1]; combination CMN + Amphotericin B, well E6): 0.14 µg/mL | MIC Alone [1, 3]: 0.6 µg/mL
SMILES: C[C@@H]1[C@H](O)[C@@H](C)/C=C/C=C/C=C/C=C/C=C/C=C/C=C/[C@H](O[C@@H]2O[C@H](C)[C@@H](O)[C@H](N)[C@@H]2O)C[C@@H]2O[C@](O)(C[C@@H](O)C[C@@H](O)[C@H](O)CC[C@@H](O)C[C@@H](O)CC(=O)O[C@H]1C)C[C@H](O)[C@H]2C(=O)O [Amphotericin B]

MIC [1, 3]: 0.22 µg/mL | MIC Comb ([1]; combination CMN + Itraconazole, well E4): 0.22 µg/mL
SMILES: CCC(C)n1ncn(-c2ccc(N3CCN(c4ccc(OCC5COC(Cn6cncn6)(c6ccc(Cl)cc6Cl)O5)cc4)CC3)cc2)c1=O (stereo not drawn) [Itraconazole]

MIC [1, 3]: 0.05 µg/mL | MIC Comb ([1]; combination CMN + Voriconazole, well D4): 0.05 µg/mL
SMILES: C[C@@H](c1ncncc1F)[C@](O)(Cn1cncn1)c1ccc(F)cc1F [Voriconazole]

SMILES: N.N.[Cl][Pt][Cl] [cisplatin]
IC50 [2]: 1410 nM
